Experimental data from PubChem BioAssay AID1259407 (Chemical Carcinogenesis Research Information System (CCRIS), 2018).
Activity calls are given as the source filed them. How the calls were made is not given here.

Tested on: CCRIS mutagenicity, Ames/micronucleus/aberration tests
Test: CCRIS mutagenicity studies
[1] = Test System: AMES SALMONELLA TYPHIMURIUM, Strain/Indicator: TA98, Metabolic Activation: NONE, Method: STANDARD PLATE
[2] = Test System: AMES SALMONELLA TYPHIMURIUM, Strain/Indicator: TA98, Metabolic Activation: RAT, LIVER, S-9, AROCLOR 1254, Method: STANDARD PLATE
[3] = Test System: AMES SALMONELLA TYPHIMURIUM, Strain/Indicator: TA100, Metabolic Activation: NONE, Method: STANDARD PLATE
[4] = Test System: AMES SALMONELLA TYPHIMURIUM, Strain/Indicator: TA100, Metabolic Activation: RAT, LIVER, S-9, AROCLOR 1254, Method: STANDARD PLATE
[5] = Test System: AMES SALMONELLA TYPHIMURIUM, Strain/Indicator: TA1535, Metabolic Activation: NONE, Method: STANDARD PLATE
[6] = Test System: AMES SALMONELLA TYPHIMURIUM, Strain/Indicator: TA1537, Metabolic Activation: NONE, Method: STANDARD PLATE

NCCc1cc(O)c(O)cc1O
mutagenic call (Test System: AMES SALMONELLA TYPHIMURIUM, Strain/Indicator: TA102, Metabolic Activation: NONE, Method: STANDARD PLATE): active; positive
mutagenic call (Test System: AMES SALMONELLA TYPHIMURIUM, Strain/Indicator: TA104, Metabolic Activation: NONE, Method: STANDARD PLATE): active; positive

O=C=Nc1ccc(Cc2ccccc2N=C=O)cc1
mutagenic call (Test System: AMES SALMONELLA TYPHIMURIUM, Strain/Indicator: TA100, Metabolic Activation: RAT, LIVER, S-9, AROCLOR 1254 (30%), Method: STANDARD PLATE): inactive; negative

O=C1c2ccccc2-c2ccc3ccccc3c21
mutagenic call [1]: inactive; negative
mutagenic call [2]: inactive; negative
mutagenic call [3]: inactive; negative
mutagenic call [4]: inactive; negative

C[C@@H](O)[C@H](N)C(=O)O
mutagenic call (Test System: AMES SALMONELLA TYPHIMURIUM, Strain/Indicator: TA98, Metabolic Activation: RAT LIVER S-9, CHLOROPHENE, Method: STANDARD PLATE (COMPOUND HEATED AT 250 DEGREES CELSIUS FOR 20 MIN)): active; positive

C=C(C)C(=O)OCC(CC)(COC(=O)C(=C)C)COC(=O)C(=C)C
mutagenic call (Test System: AMES SALMONELLA TYPHIMURIUM, Strain/Indicator: TA98, Metabolic Activation: HAMSTER, LIVER, S-9, AROCLOR 1254, Method: STANDARD PLATE): inactive; negative
mutagenic call [1]: inactive; negative
mutagenic call [2]: inactive; negative
mutagenic call (Test System: AMES SALMONELLA TYPHIMURIUM, Strain/Indicator: TA100, Metabolic Activation: HAMSTER, LIVER, S-9, AROCLOR 1254, Method: STANDARD PLATE): inactive; negative
mutagenic call [3]: inactive; negative
mutagenic call [4]: inactive; negative
mutagenic call (Test System: AMES SALMONELLA TYPHIMURIUM, Strain/Indicator: TA1535, Metabolic Activation: HAMSTER, LIVER, S-9, AROCLOR 1254 (5-10%), Method: STANDARD PLATE): inactive; negative
mutagenic call (Test System: AMES SALMONELLA TYPHIMURIUM, Strain/Indicator: TA1535, Metabolic Activation: HAMSTER, LIVER, S-9, AROCLOR 1254 (15-20%), Method: STANDARD PLATE): active; positive
mutagenic call (Test System: AMES SALMONELLA TYPHIMURIUM, Strain/Indicator: TA1535, Metabolic Activation: HAMSTER, LIVER, S-9, AROCLOR 1254, Method: STANDARD PLATE): active; positive
mutagenic call [5]: inactive; negative
mutagenic call (Test System: AMES SALMONELLA TYPHIMURIUM, Strain/Indicator: TA1535, Metabolic Activation: RAT, LIVER, S-9, AROCLOR 1254, Method: STANDARD PLATE): inactive; negative
mutagenic call (Test System: AMES SALMONELLA TYPHIMURIUM, Strain/Indicator: TA1537, Metabolic Activation: HAMSTER, LIVER, S-9, AROCLOR 1254, Method: STANDARD PLATE): inactive; negative
mutagenic call [6]: inactive; negative
mutagenic call (Test System: AMES SALMONELLA TYPHIMURIUM, Strain/Indicator: TA1537, Metabolic Activation: RAT, LIVER, S-9, AROCLOR 1254, Method: STANDARD PLATE): inactive; negative

Cc1ccc(S(=O)(=O)Oc2ccc(N=Nc3ccc(-c4ccc(N=Nc5c(S(=O)(=O)O)cc6cc(S(=O)(=O)O)ccc6c5O)cc4C)c(C)c3)cc2)cc1
mutagenic call (Test System: AMES SALMONELLA TYPHIMURIUM, Strain/Indicator: TA98, Metabolic Activation: HAMSTER, LIVER, S-9, Method: PREINCUBATION (PRIVAL METHOD)): inactive; negative

Cc1cc(O)c2c(c1)C(=O)c1c(O)c(O)cc(O)c1C2=O
mutagenic call [6]: inactive; negative
mutagenic call (Test System: AMES SALMONELLA TYPHIMURIUM, Strain/Indicator: TA1537, Metabolic Activation: RAT, LIVER, S-9, PCB, Method: STANDARD PLATE): active; positive

Nc1ncnc2c1ncn2C(c1ccccc1)c1ccccc1
mutagenic call (Test System: AMES SALMONELLA TYPHIMURIUM, Strain/Indicator: TA97, Metabolic Activation: NONE, Method: STANDARD PLATE): inactive; negative
mutagenic call (Test System: AMES SALMONELLA TYPHIMURIUM, Strain/Indicator: TA97, Metabolic Activation: RAT, LIVER, S-9, AROCLOR 1254, Method: STANDARD PLATE): inactive; negative
mutagenic call [1]: inactive; negative
mutagenic call [2]: active; positive
mutagenic call [3]: inactive; negative
mutagenic call [4]: inactive; negative

O=Nc1c(-c2ccc(Cl)cc2)nc2sccn12
mutagenic call [1]: inactive; negative
mutagenic call [3]: inactive; negative
mutagenic call [5]: inactive; negative
mutagenic call [6]: active; positive
mutagenic call (Test System: AMES SALMONELLA TYPHIMURIUM, Strain/Indicator: TA1538, Metabolic Activation: NONE, Method: STANDARD PLATE): active; positive

CC1CN1P(=O)(N1CC1C)N1CC1C (stereo not given)
mutagenic call (Test System: AMES SALMONELLA TYPHIMURIUM, Strain/Indicator: G46, Metabolic Activation: HOST MEDIATED, Method: STANDARD PLATE): active; positive

CCCCOC(=O)c1ccccc1C(=O)OCCCC
mutagenic call (Test System: AMES SALMONELLA TYPHIMURIUM, Strain/Indicator: TA98, Metabolic Activation: HAMSTER, LIVER, S-9, AROCLOR 1254 (10%), Method: PREINCUBATION): inactive; negative
mutagenic call (Test System: AMES SALMONELLA TYPHIMURIUM, Strain/Indicator: TA98, Metabolic Activation: NONE, Method: PREINCUBATION): inactive; negative
mutagenic call (Test System: AMES SALMONELLA TYPHIMURIUM, Strain/Indicator: TA98, Metabolic Activation: RAT, LIVER, S-9, AROCLOR 1254 (10%), Method: PREINCUBATION): inactive; negative
mutagenic call (Test System: AMES SALMONELLA TYPHIMURIUM, Strain/Indicator: TA100, Metabolic Activation: HAMSTER, LIVER, S-9, AROCLOR 1254 (10%), Method: PREINCUBATION): inactive; negative
mutagenic call (Test System: AMES SALMONELLA TYPHIMURIUM, Strain/Indicator: TA100, Metabolic Activation: NONE, Method: PREINCUBATION): inactive; negative
mutagenic call [3]: active; positive
mutagenic call (Test System: AMES SALMONELLA TYPHIMURIUM, Strain/Indicator: TA100, Metabolic Activation: RAT, LIVER, S-9, AROCLOR 1254 (10%), Method: PREINCUBATION): inactive; negative
mutagenic call (Test System: AMES SALMONELLA TYPHIMURIUM, Strain/Indicator: TA100, Metabolic Activation: S-9, Method: STANDARD PLATE): inactive; negative
mutagenic call (Test System: AMES SALMONELLA TYPHIMURIUM, Strain/Indicator: TA1535, Metabolic Activation: HAMSTER, LIVER, S-9, AROCLOR 1254 (10%), Method: PREINCUBATION): inactive; negative
mutagenic call (Test System: AMES SALMONELLA TYPHIMURIUM, Strain/Indicator: TA1535, Metabolic Activation: NONE, Method: PREINCUBATION): inactive; negative
mutagenic call [5]: inactive; negative
mutagenic call (Test System: AMES SALMONELLA TYPHIMURIUM, Strain/Indicator: TA1535, Metabolic Activation: RAT, LIVER, S-9, AROCLOR 1254 (10%), Method: PREINCUBATION): inactive; negative
mutagenic call (Test System: AMES SALMONELLA TYPHIMURIUM, Strain/Indicator: TA1535, Metabolic Activation: S-9, Method: STANDARD PLATE): inactive; negative
mutagenic call (Test System: AMES SALMONELLA TYPHIMURIUM, Strain/Indicator: TA1537, Metabolic Activation: HAMSTER, LIVER, S-9, AROCLOR 1254 (10%), Method: PREINCUBATION): inactive; negative
mutagenic call (Test System: AMES SALMONELLA TYPHIMURIUM, Strain/Indicator: TA1537, Metabolic Activation: NONE, Method: PREINCUBATION): inactive; negative
mutagenic call (Test System: AMES SALMONELLA TYPHIMURIUM, Strain/Indicator: TA1537, Metabolic Activation: RAT, LIVER, S-9, AROCLOR 1254 (10%), Method: PREINCUBATION): inactive; negative
mutagenic call (Test System: MOUSE LYMPHOMA, Strain/Indicator: L5178Y (TK+/TK-), Metabolic Activation: NONE, Method: SUSPENSION/PLATE): inactive; negative
mutagenic call (Test System: MOUSE LYMPHOMA, Strain/Indicator: L5178Y (TK+/TK-), Metabolic Activation: RAT LIVER S-9, Method: SUSPENSION/PLATE): active; positive
